Test results: the NIST ThermoML archive (doi:10.1021/je050085p)

Experiments:
[1] = excess molar enthalpy (molar enthalpy of mixing); xn = mol fraction of the nth substance listed; conditions: 308.15 K, 101 kPa, Liquid, Flow calorimetry
[2] = xn = mol fraction of the nth substance listed; conditions: 308.15 K, 101 kPa, Liquid
[3] = refractive index (Na D-line) (dimensionless); xn = mol fraction of the nth substance listed; conditions: 308.15 K, 101 kPa, Liquid, Standard Abbe refractometry

CCOc1ccccc1 [ethoxybenzene] + OCCc1ccccc1
Conditions	excess molar enthalpy [kcal/mol]	mass density [kg/m3]	refractive index
[1], x1 = 0.0378	0.027	–	–
[1], x1 = 0.0728	0.0534	–	–
[1], x1 = 0.1054	0.0772	–	–
[1], x1 = 0.1358	0.0979	–	–
[1], x1 = 0.1907	0.135	–	–
[1], x1 = 0.2391	0.159	–	–
[1], x1 = 0.3203	0.193	–	–
[1], x1 = 0.3858	0.218	–	–
[1], x1 = 0.4852	0.245	–	–
[1], x1 = 0.5857	0.268	–	–
[1], x1 = 0.6534	0.275	–	–
[1], x1 = 0.7388	0.273	–	–
[1], x1 = 0.7904	0.264	–	–
[1], x1 = 0.8498	0.232	–	–
[1], x1 = 0.8829	0.204	–	–
[1], x1 = 0.9188	0.161	–	–
[1], x1 = 0.9577	0.0965	–	–
[2], x1 = 0.0656	–	1004.96	–
[2], x1 = 0.1079	–	1002.5	–
[2], x1 = 0.1726	–	998.71	–
[2], x1 = 0.3041	–	990.99	–
[2], x1 = 0.3803	–	986.52	–
[2], x1 = 0.4826	–	980.37	–
[2], x1 = 0.5243	–	978.09	–
[2], x1 = 0.5904	–	974.22	–
[2], x1 = 0.6819	–	968.87	–
[2], x1 = 0.7929	–	962.44	–
[2], x1 = 0.8881	–	957	–
[2], x1 = 0.9469	–	953.74	–
[2], x1 = 0.9881	–	951.5	–
[3], x1 = 0.0656	–	–	1.5252
[3], x1 = 0.1079	–	–	1.524
[3], x1 = 0.1726	–	–	1.5223
[3], x1 = 0.3041	–	–	1.5187
[3], x1 = 0.3803	–	–	1.5166
[3], x1 = 0.4826	–	–	1.5137
[3], x1 = 0.5243	–	–	1.5126
[3], x1 = 0.5904	–	–	1.5108
[3], x1 = 0.6819	–	–	1.5083
[3], x1 = 0.7929	–	–	1.5054
[3], x1 = 0.8881	–	–	1.5029
[3], x1 = 0.9469	–	–	1.5014
[3], x1 = 0.9881	–	–	1.5005

CCOc1ccccc1 [ethoxybenzene] + OCc1ccccc1
Conditions	excess molar enthalpy [kcal/mol]	mass density [kg/m3]	refractive index
[1], x1 = 0.0328	0.0247	–	–
[1], x1 = 0.0636	0.0454	–	–
[1], x1 = 0.0924	0.0677	–	–
[1], x1 = 0.1195	0.0854	–	–
[1], x1 = 0.1691	0.118	–	–
[1], x1 = 0.2135	0.147	–	–
[1], x1 = 0.2893	0.177	–	–
[1], x1 = 0.3517	0.205	–	–
[1], x1 = 0.4488	0.232	–	–
[1], x1 = 0.5499	0.252	–	–
[1], x1 = 0.6196	0.262	–	–
[1], x1 = 0.7095	0.266	–	–
[1], x1 = 0.7651	0.259	–	–
[1], x1 = 0.8301	0.232	–	–
[1], x1 = 0.8669	0.209	–	–
[1], x1 = 0.907	0.169	–	–
[1], x1 = 0.9513	0.104	–	–
[2], x1 = 0.0642	–	1027.61	–
[2], x1 = 0.0826	–	1025.86	–
[2], x1 = 0.1663	–	1018.18	–
[2], x1 = 0.1751	–	1017.38	–
[2], x1 = 0.2585	–	1009.89	–
[2], x1 = 0.3363	–	1003.06	–
[2], x1 = 0.4598	–	992.51	–
[2], x1 = 0.544	–	985.53	–
[2], x1 = 0.6369	–	978.04	–
[2], x1 = 0.7572	–	968.65	–
[2], x1 = 0.8621	–	960.77	–
[2], x1 = 0.9361	–	955.37	–
[3], x1 = 0.0642	–	–	1.5322
[3], x1 = 0.0826	–	–	1.5313
[3], x1 = 0.1663	–	–	1.5279
[3], x1 = 0.1751	–	–	1.5275
[3], x1 = 0.2585	–	–	1.5244
[3], x1 = 0.3363	–	–	1.5216
[3], x1 = 0.4598	–	–	1.5172
[3], x1 = 0.544	–	–	1.5142
[3], x1 = 0.6369	–	–	1.5111
[3], x1 = 0.7572	–	–	1.5071
[3], x1 = 0.8621	–	–	1.5039
[3], x1 = 0.9361	–	–	1.5018
